Measurements reported in patent publication US10471050B2, “2-OXO-1,2-dihydropyridine-3,5-dicarboxamide compounds as bromodomain inhibitors” (GlaxoSmithKline Intellectual Property (No. 2) Limited, priority 2015, dated 2019).

Experiments:
BRD4 BD2 over BRD4 BD1 = test: Calculation of selectivity for BRD4 BD2 over BRD4 BD1 from the TR-FRET assays; assay type: binding, Human; settings: 1 log unit = 10 fold, 2 log unit = 100 fold
Method: Bromodomain binding was assessed utilising a time resolved fluorescent resonance energy transfer (TR-FRET) competition assay. To enable this approach a known, high affinity, pan-BET interacting small molecule was labelled with Alexa Fluor® 647, which is a far-red-fluorescent dye (Reference Compound X). Reference Compound X acts as a reporter of bromodomain binding and is the acceptor fluorophore component of the TR-FRET pair. Europium chelate, conjugated to an anti-6*His antibody, was utilised as the donor fluorophore in the TR-FRET pair. The anti-6*His antibody binds selectively to a six Histidine purification epitope added to the amino-terminus of each of the BET tandem bromodomain protein constructs used in this study. […]
The competition of the compounds of formula (I) with Reference Compound X for binding to the BET family (BRD2, BRD3, BRD4 and BRDT) was assessed using protein truncates spanning both bromodomain 1 (BD1) and bromodomain 2 (BD2). […] Utilising a Fluorescence Polarisation approach, binding affinities for each of the single and double mutants for Reference Compound X were determined. […] In the TR-FRET competition assay, Reference Compound X is used at a concentration that is equivalent to the Kd for the non-mutated bromodomain, which ensures that no binding at the mutated bromodomain is detected. […]

BRD4 BD2 = target: T1, BRD4 BD2 (Homo sapiens, UniProt O60885, Y97A); test: BRD4 BD2 TR-FRET competition assay; assay type: binding; settings: single mutant tandem BRD4, read-out: pIC50 in the BRD4 BD2 assay (converted)
T1 construct: BRD4 (1-477) (Y97A) and (Y390A); made in house; host or cells: E. coli (pET15b vector)
Method: Bromodomain binding was assessed utilising a time resolved fluorescent resonance energy transfer (TR-FRET) competition assay. To enable this approach a known, high affinity, pan-BET interacting small molecule was labelled with Alexa Fluor® 647, which is a far-red-fluorescent dye (Reference Compound X). Reference Compound X acts as a reporter of bromodomain binding and is the acceptor fluorophore component of the TR-FRET pair. Europium chelate, conjugated to an anti-6*His antibody, was utilised as the donor fluorophore in the TR-FRET pair. […] A TR-FRET signal is generated when the donor and acceptor fluorophores are in close proximity, between 20-80 Å, which is enabled in this assay by binding of Reference Compound X to the bromodomain protein.
In order to generate a TR-FRET signal, donor fluorophore is excited by a laser at λ337 nm, which subsequently leads to emission at λ618 nm. If the acceptor fluorophore is in close proximity then energy transfer can occur, which leads to emission of Alexa Fluor® 647 at λ665 nm. In the presence of competitor compound, Reference Compound X can be displaced from binding to the bromodomain. If displacement occurs, the acceptor fluorophore is no longer in proximity to the donor fluorophore, which prevents fluorescent energy transfer and, subsequently, a loss of Alexa Fluor® 647 emission at λ665 nm.
The competition of the compounds of formula (I) with Reference Compound X for binding to the BET family (BRD2, BRD3, BRD4 and BRDT) was assessed using protein truncates spanning both bromodomain 1 (BD1) and bromodomain 2 (BD2). In order to monitor differential binding to either BD1 or BD2, single residue mutations of key tyrosines to alanine were made in the acetyl lysine binding pockets. To validate this approach, a double residue mutant tandem domain protein was produced for each of the BET family members. Utilising a Fluorescence Polarisation approach, binding affinities for each of the single and double mutants for Reference Compound X were determined.
Final purification was completed by Superdex 200 prep grade size exclusion column. Purified protein was stored at −80° C. in 20 mM HEPES pH 7.5 and 100 mM NaCl.
All assay components were dissolved in an assay buffer composing of 50 mM HEPES pH7.4, 50 mM NaCl, 5% Glycerol, 1 mM DTT and 1 mM CHAPS. Reference Compound X was diluted, in assay buffer containing 20 nM single mutant, tandem bromodomain protein, to a concentration equivalent to 2*Kd for this bromodomain. The solution containing bromodomain and Reference Compound X was added to dose response dilutions of test compound or DMSO vehicle (a maximum of 0.5% DMSO is used in this assay) in Greiner 384 well black low volume microtitre plates and subsequently incubated for 30 minutes at room temperature. An equal volume of 3 nM of anti-6*His Europium chelate was added to all wells, followed by a further 30 minute incubation at room temperature. TR-FRET was detected using a Perkin Elmer Multimode plate reader, by exciting the donor fluorophore at λ337 nm and subsequently, after a delay of 50 μsecs, measuring emission of the donor and acceptor fluorophores at λ615 nm and λ665 nm, respectively. In order to control these assays, 16 replicates each of uninhibited (DMSO vehicle) and inhibited (10*IC50 concentrations of Example 11 of WO 2011/054846A1) TR-FRET assays were included on every microtitre plate.
cA four parameter curve fit of the following form was then applied: y=a+((b−a)/(1+(10^x/10^c)^d)
Where ‘a’ is the minimum, ‘b’ is the Hill slope, ‘c’ is the pIC50 and ‘d’ is the maximum.

For `CNC(=O)c1cc(C(=O)NCCCC(=O)O)cn(Cc2ccccc2)c1=O` [Example 44, 4-(1-Benzyl-5-(methylcarbamoyl)-6-oxo-1,6-dihydropyridine-3-carboxamido)butanoic acid], which “selectivity for BRD4 BD2 over BRD4 BD1 (BRD4 BD2 pIC50 - BRD4 BD1 pIC50)” value (BRD4 BD2 over BRD4 BD1) is on record?
The value was less than 1 log unit.

And the IC50 (BRD4 BD2)?
The IC50 was 100 to 1000 nM.
